Laboratory results from patent US20250136607A1 (REGOR PHARMACEUTICALS, INC., priority 2021, published 2025).
pIC50: −log10 of the molar value. Like-named read-outs stand apart in the source and are kept apart here.

Biological target: Protein arginine deiminase 4 (PAD4) (Homo sapiens, UniProt Q9UM07)
Assay: PAD4 ammonia release assay
Assay type: biochemical
Method: 1) Compound preparation: The compounds were diluted to 80× final concentrations. 2) The compounds were transferred to a 384-well assay plate by Tecan. DMSO: 1.25%. 3) Preparation of 1×Assay buffer: 100 mM HEPES, PH=8.0, 2 mM CaCl2, 50 mM NaCl, 0.1 mM TCEP, 0.6 mg/ml BSA. 4) 2× enzyme working solution (PAD4:20 nM) was prepared with assay buffer, and 10 μL of the obtained working solution were added to the 384-well assay plates. 5) The plate was centrifuged at 1000 rpm for 1 min. 6) After the centrifuge, the plate was incubated at RT for 15 min. 7) 2×BAEE substrate mix (600 μM) was prepared with assay buffer and 10 μL of the obtained substrate mix were added to each well. 8) The plate was centrifuged at 1000 rpm for 1 min and then incubated at RT for 60 min. 9) 1.5× detection mix (DTT:4 mM, OPA:3 mM, EDTA: 30 mM) was prepared, and 10 μL of the mix were added to the plate. 10) The plate was centrifuged at 1000 rpm for 1 min and then incubated at RT for 120 min. 11) The 384-well plates were placed into the Envision (PerkinElmer) and the assay data were collected.
The percent (%) inhibition at each concentration of compound was calculated based on and relative to the signal in the HPE (50 μM ref. compound) and ZPE (1.25% DMSO) wells included within each assay plate. The HPE worked as 100% inhibition, and the ZPE worked as 0% inhibition. The concentrations and % inhibition values for tested compounds were plotted and the concentration of compound required for 50% inhibition (IC50) was determined with a Four-parameter logistic dose response equation. The endpoint value (IC50) for the reference compound was evaluated in each experiment as a quality control measure. If the endpoint value is within 3-fold of the expected value, then the experiment quality is deemed as acceptable. The results are provided in Table 1 below. ≤0.1 μM=“++++”; >0.1 and ≤0.5 μM=“+++”; >0.5 and ≤5.0 μM=“++”; >5.0 μM=“+”. “−”=not available.

[1] = PAD4 ammonia release assay, BAEE substrate, 60 min at RT, read-out: Average IC50 Abs
[2] = PAD4 activity comparison, read-out: PAD4 Ammonia assay IC50

Sequence of Protein arginine deiminase 4 (PAD4) (Q9UM07 whole entry): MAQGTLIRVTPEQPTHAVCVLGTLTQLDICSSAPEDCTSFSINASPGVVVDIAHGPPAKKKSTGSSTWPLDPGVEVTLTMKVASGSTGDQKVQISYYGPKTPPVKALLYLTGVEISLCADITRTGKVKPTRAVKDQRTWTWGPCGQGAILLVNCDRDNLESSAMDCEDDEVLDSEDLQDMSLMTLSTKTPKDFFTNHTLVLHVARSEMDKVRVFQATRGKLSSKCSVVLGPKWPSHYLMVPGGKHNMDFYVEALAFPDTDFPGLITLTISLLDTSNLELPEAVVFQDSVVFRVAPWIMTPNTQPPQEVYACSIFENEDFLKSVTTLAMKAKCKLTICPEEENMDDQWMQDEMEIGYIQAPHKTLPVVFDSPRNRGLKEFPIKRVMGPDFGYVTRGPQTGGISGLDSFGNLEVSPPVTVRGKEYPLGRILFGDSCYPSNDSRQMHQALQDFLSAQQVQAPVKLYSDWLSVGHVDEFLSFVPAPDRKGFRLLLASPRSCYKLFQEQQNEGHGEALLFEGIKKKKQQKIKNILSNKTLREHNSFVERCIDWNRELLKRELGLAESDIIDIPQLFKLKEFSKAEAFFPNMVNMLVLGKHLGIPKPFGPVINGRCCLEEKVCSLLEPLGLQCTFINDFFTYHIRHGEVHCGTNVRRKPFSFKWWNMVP

pIC50 [1] | pIC50 [2] | Compound
6.30 to 7.00 | – | Cn1c(-c2cc3ccn4ccnc4c3n2CC2CC2)nc2cc(C(=O)N3C[C@H]4CC[C@@H]3[C@@H]4N)cc(F)c21 [Example 150, ((1R,4R,7R)-7-amino-2-azabicyclo[2.2.1]heptan-2-yl)(2-(9-(cyclopropylmethyl)-9H-imidazo[1,2-a]pyrrolo[2,3-c]pyridin-8-yl)-7-fluoro-1-methyl-1H-benzo[d]imidazol-5-yl)methanone]
< 5.30 | – | COc1cc(C(=O)N2CCC[C@@H](N)C2)cc2nc(-c3cc4cccc5c4n3CCN5Cc3ccccc3)n(C)c12 [Example 24, (R)-(3-aminopiperidin-1-yl)(2-(1-benzyl-2,3-dihydro-1H-pyrrolo[1,2,3-de]quinoxalin-5-yl)-7-methoxy-1-methyl-1H-benzo[d]imidazol-5-yl)methanone]
5.30 to 6.30 | – | CC(C)N1CCc2c(ccc3cc(-c4nc5cc(C(=O)N6C[C@H]7CC[C@@H]6[C@@H]7N)cc(F)c5n4C)n(CC4CC4)c23)C1 [Example 154, ((1R,4R,7R)-7-amino-2-azabicyclo[2.2.1]heptan-2-yl)(2-(1-(cyclopropylmethyl)-7-isopropyl-6,7,8,9-tetrahydro-1H-pyrrolo[2,3-f]isoquinolin-2-yl)-7-fluoro-1-methyl-1H-benzo[d]imidazol-5-yl)methanone]
5.30 to 6.30 | – | Cn1c(-c2cc3ccc4c(c3n2CC2CC2)CC(=O)N4)nc2cc(C(=O)N3C[C@H]4CC[C@@H]3[C@@H]4N)cc(F)c21 [Example 145, 2-(5-((1R,4R,7R)-7-amino-2-azabicyclo[2.2.1]heptane-2-carbonyl)-7-fluoro-1-methyl-1H-benzo[d]imidazol-2-yl)-1-(cyclopropylmethyl)-6,8-dihydropyrrolo[2,3-e]indol-7(1H)-one]
< 5.30 | – | COc1cc(C(=O)N2C[C@H](N)C[C@@H](C(F)(F)F)C2)cc2nc(-c3cc4cccc5c4n3CCN5CCCO)n(C)c12 [Example 17, ((3R,5R)-3-amino-5-(trifluoromethyl)piperidin-1-yl)(2-(1-(3-hydroxypropyl)-2,3-dihydro-1H-pyrrolo[1,2,3-de]quinoxalin-5-yl)-7-methoxy-1-methyl-1H-benzo[d]imidazol-5-yl)methanone]
< 5.30 | – | CC[C@@H]1CN(CCCO)c2cccc3cc(-c4nc5cc(C(=O)N6C[C@H]7CC[C@@H]6[C@@H]7N)cc(F)c5n4C)n1c23 [Example 70, ((1R,4R,7R)-7-amino-2-azabicyclo[2.2.1]heptan-2-yl)(2-((R)-3-ethyl-1-(3-hydroxypropyl)-2,3-dihydro-1H-pyrrolo[1,2,3-de]quinoxalin-5-yl)-7-fluoro-1-methyl-1H-benzo[d]imidazol-5-yl)methanone]
< 5.30 | – | CN1C(=O)Cc2c1ccc1cc(-c3nc4cc(C(=O)N5C[C@H]6CC[C@@H]5[C@@H]6N)cc(F)c4n3C)n(CC3CC3)c21 [Example 146, 2-(5-((1R,4R,7R)-7-amino-2-azabicyclo[2.2.1]heptane-2-carbonyl)-7-fluoro-1-methyl-1H-benzo[d]imidazol-2-yl)-1-(cyclopropylmethyl)-6-methyl-6,8-dihydropyrrolo[2,3-e]indol-7(1H)-one]
5.30 to 6.30 | 5.59 | COc1cc(C(=O)N2CCC[C@@H](N)C2)cc2nc(-c3cc4cccc5c4n3C(C)CN5)n(C)c12 (stereo partly drawn) [Example 65, ((R)-3-aminopiperidin-1-yl)(7-methoxy-1-methyl-2-(3-methyl-2,3-dihydro-1H-pyrrolo[1,2,3-de]quinoxalin-5-yl)-1H-benzo[d]imidazol-5-yl)methanone]
6.30 to 7.00 | – | Cn1c(-c2cc3ccc4c(c3n2CC2CC2)CCN(C2CC2)C4)nc2cc(C(=O)N3C[C@H]4CC[C@@H]3[C@@H]4N)cc(F)c21 [Example 155, ((1R,4R,7R)-7-amino-2-azabicyclo[2.2.1]heptan-2-yl)(2-(7-cyclopropyl-1-(cyclopropylmethyl)-6,7,8,9-tetrahydro-1H-pyrrolo[2,3-f]isoquinolin-2-yl)-7-fluoro-1-methyl-1H-benzo[d]imidazol-5-yl)methanone]
6.30 to 7.00 | 6.68 | CCC1CNc2cccc3cc(-c4nc5cc(C(=O)N6C[C@H]7CC[C@@H]6[C@@H]7N)cc(OC)c5n4C)n1c23 (stereo partly drawn) [Example 102, ((1R,4R,7R)-7-amino-2-azabicyclo[2.2.1]heptan-2-yl)(2-(3-ethyl-2,3-dihydro-1H-pyrrolo[1,2,3-de]quinoxalin-5-yl)-7-methoxy-1-methyl-1H-benzo[d]imidazol-5-yl)methanone]
6.30 to 7.00 | – | COc1cc(C(=O)N2C[C@H](N)C[C@@H](F)C2)cc2nc(-c3cc4cccc5c4n3CCN5CCOCCO)n(C)c12 [Example 22, ((3R,5R)-3-amino-5-fluoropiperidin-1-yl)(2-(1-(2-(2-hydroxyethoxy)ethyl)-2,3-dihydro-1H-pyrrolo[1,2,3-de]quinoxalin-5-yl)-7-methoxy-1-methyl-1H-benzo[d]imidazol-5-yl)methanone]
6.30 to 7.00 | – | COc1cc(C(=O)N2C[C@H](N)C[C@@H](F)C2)cc2nc(-c3cc4cccc5c4n3CCN5CCCO)n(Cc3ccc(F)cc3)c12 [Example 36, ((3R,5R)-3-amino-5-fluoropiperidin-1-yl)(1-(4-fluorobenzyl)-2-(1-(3-hydroxypropyl)-2,3-dihydro-1H-pyrrolo[1,2,3-de]quinoxalin-5-yl)-7-methoxy-1H-benzo[d]imidazol-5-yl)methanone]
< 5.30 | – | COc1cc(C(=O)N2CCC[C@@](C)(N)C2)cc2nc(-c3cc4cccc5c4n3CCN5CCCO)n(C)c12 [Example 16, (R)-(3-amino-3-methylpiperidin-1-yl)(2-(1-(3-hydroxypropyl)-2,3-dihydro-1H-pyrrolo[1,2,3-de]quinoxalin-5-yl)-7-methoxy-1-methyl-1H-benzo[d]imidazol-5-yl)methanone]
5.30 to 6.30 | – | COc1cc(C(=O)N2C[C@H](N)C[C@@H](F)C2)cc2nc(-c3cc4cccc5c4n3CCN5CCCNC(=O)NC3CC3)n(C)c12 [Example 4, 1-(3-(5-(5-((3R,5R)-3-amino-5-fluoropiperidine-1-carbonyl)-7-methoxy-1-methyl-1H-benzo[d]imidazol-2-yl)-2,3-dihydro-1H-pyrrolo[1,2,3-de]quinoxalin-1-yl)propyl)-3-cyclopropylurea]
6.30 to 7.00 | – | Cn1c(-c2cc3ccc4[nH]ccc4c3n2CC2CC2)nc2cc(C(=O)N3C[C@H]4CC[C@@H]3[C@@H]4N)cc(F)c21 [Example 144, ((1R,4R,7R)-7-amino-2-azabicyclo[2.2.1]heptan-2-yl)(2-(1-(cyclopropylmethyl)-1,6-dihydropyrrolo[2,3-e]indol-2-yl)-7-fluoro-1-methyl-1H-benzo[d]imidazol-5-yl)methanone]
5.30 to 6.30 | 6.26 | CC1CNc2cccc3cc(-c4nc5cc(C(=O)N6C[C@H]7CC[C@@H]6[C@@H]7N)ccc5n4C)n1c23 (stereo partly drawn) [Example 169, ((1R,4R,7R)-7-amino-2-azabicyclo[2.2.1]heptan-2-yl)(1-methyl-2-(3-methyl-2,3-dihydro-1H-pyrrolo[1,2,3-de]quinoxalin-5-yl)-1H-benzo[d]imidazol-5-yl)methanone]
6.30 to 7.00 | – | CCn1cc(Cn2c(-c3cc4cccc5c4n3CCN5CCCOC)nc3cc(C(=O)N4C[C@H](N)C[C@@H](F)C4)cc(F)c32)cn1 [Example 41, ((3R,5R)-3-amino-5-fluoropiperidin-1-yl)(1-((1-ethyl-1H-pyrazol-4-yl)methyl)-7-fluoro-2-(1-(3-methoxypropyl)-2,3-dihydro-1H-pyrrolo[1,2,3-de]quinoxalin-5-yl)-1H-benzo[d]imidazol-5-yl)methanone]
